Laboratory results from ChEMBL document CHEMBL5724709, “EUbOPEN Chemogenomics Library - IncuCyte” (2024).
Square brackets hold non-standard residues; d marks the D form. Peptide text beside a SMILES is read from it. * marks the point of attachment. Benzoyl(4-OPh) = O=C(c1ccc(Oc2ccccc2)cc1)*; Benzoyl(4-tBu) = CC(C)(C)c1ccc(C(=O)*)cc1; Lys(Et2) = CCN(CC)CCCC[C@H](N)C(=O)O; d(aIle) = CC[C@H](C)[C@@H](N)C(=O)O; Gly(cPent) = N[C@H](C(=O)O)C1CCCC1; NH(propargyl) = C#CCN*

Key:
Type in all cases: toxicity, cell-based
[1] = test system: U2OS; experiment: Incucyte cell viability with U2OS; conditions: human, 24 h, 10 µM, compound concentration 10 uM
[2] = test system: Fibroblast; experiment: Incucyte cell viability with human fibroblast; conditions: 24 h, 10 µM, compound concentration 10 uM
[3] = test system: HEK-293T; experiment: Incucyte cell viability with HEK293T; conditions: human, 24 h, 10 µM, compound concentration 10 uM
Note: unitless GR value; below 1 slowed growth and below 0 cell loss.

SMILES | Growth Rate ([1]; replicate number 1) | Growth Rate ([2]; replicate number 1) | Growth Rate ([2]; replicate number 2) | Growth Rate ([3]; replicate number 1) | Growth Rate ([3]; replicate number 2) | Growth Rate ([1]; replicate number 2)
C#CCNC(=O)[C@H](CO)NC(=O)[C@H](CCCCN(CC)CC)NC(=O)[C@H](NC(=O)[C@@H](NC(=O)c1ccc(Oc2ccccc2)cc1)C1CCCC1)[C@@H](C)CC ({Benzoyl(4-OPh)}-[Gly(cPent)][d(aIle)][Lys(Et2)]S-{NH(propargyl)}) | 1 | 1 | 0.24 | 0.58 | 1 | –
CCN(CC)CCCC[C@H](NC(=O)[C@H](CC(C)C)NC(=O)[C@H](C)NC(=O)[C@H](Cc1ccccc1)NC(=O)c1ccc(C(C)(C)C)cc1)C(=O)N[C@@H](CO)C(=O)OC ({Benzoyl(4-tBu)}-FAL[Lys(Et2)]S-OMe) | 1 | 0.92 | 0.71 | 0.81 | 0.89 | –
CCCN1CCN(c2ccc(C(=O)NC3(C(=O)NCC#N)CCCCC3)cc2)CC1 [BALICATIB] | 1 | 1 | – | 0.79 | 0.95 | 0.86
CCS(=O)(=O)N1CC(CC#N)(n2cc(-c3ncnc4[nH]ccc34)cn2)C1 [BARICITINIB] | 1 | 0.11 | 0.42 | 0.96 | 1 | 0.77
CC/C(=C(/c1ccc(/C=C/C(=O)O)cc1)c1ccc2[nH]ncc2c1)c1ccc(F)cc1Cl [BRILANESTRANT] | 1 | 1 | – | 0.82 | 0.87 | 0.77
CCCC1O[C@@H]2C[C@H]3[C@@H]4CCC5=CC(=O)C=C[C@]5(C)[C@H]4[C@@H](O)C[C@]3(C)[C@]2(C(=O)CO)O1 (some centres undefined) [BUDESONIDE] | 1 | 0.7 | 1 | 0.73 | 0.82 | 0.58
O=C(CCCCCCNC(=O)c1cnc(N(c2ccccc2)c2ccccc2Cl)nc1)NO [CITARINOSTAT] | -0.08 | 1 | 0.2 | 0.9 | 1 | 0.29
COc1cc(C)[nH]c(=O)c1CNC(=O)c1c(C)n([C@H](C)C2CCN(CC(F)(F)F)CC2)c2ccccc12 [CPI-1205] | 0.59 | 0.99 | 0.13 | 0.61 | 0.95 | 0.83
CC(=O)O[C@]1(C(C)=O)CC[C@H]2[C@@H]3C=C(Cl)C4=CC(=O)[C@@H]5C[C@@H]5[C@]4(C)[C@H]3CC[C@@]21C [CYPROTERONE ACETATE] | 1 | 0.21 | 0.15 | 0.61 | 0.76 | 0.72
Cc1nc(Nc2ncc(C(=O)Nc3c(C)cccc3Cl)s2)cc(N2CCN(CCO)CC2)n1 [DASATINIB ANHYDROUS] | -0.47 | 1 | 0.23 | -0.16 | 0.04 | -0.3
CC/C(=C(/CC)c1ccc(O)cc1)c1ccc(O)cc1 [DIETHYLSTILBESTROL] | 1 | 0.45 | 0.22 | 0.72 | 0.87 | 0.74
CN1CCN(c2ccc3nc(-c4c(N)c5c(F)cccc5[nH]c4=O)[nH]c3c2)CC1 [DOVITINIB] | -0.35 | 1 | – | -0.39 | -0.2 | -0.04
Nc1ccccc1NC(=O)c1ccc(CNC(=O)OCc2cccnc2)cc1 [ENTINOSTAT] | -0.2 | -0.02 | 0.43 | 1 | – | 0.57
COC(=O)[C@@H]1CC2=CC(=O)CC[C@]2(C)[C@@]23O[C@@H]2C[C@@]2(C)[C@@H](CC[C@@]24CCC(=O)O4)[C@H]13 [EPLERENONE] | 1 | 0.25 | 1 | 0.61 | 0.95 | –
CC(=O)N1CCN([C@H]2CCC[C@@H](NC(=O)c3cc4c(F)ccc(C)c4[nH]3)C2)CC1 [EZM-0414] | 0.87 | 0.85 | 0.56 | 0.77 | 0.94 | 0.93
COc1cc(Nc2ncc(F)c(Nc3ccc4c(n3)N(COP(=O)([O-])[O-])C(=O)C(C)(C)O4)n2)cc(OC)c1OC.O.O.O.O.O.O.[Na+].[Na+] [FOSTAMATINIB DISODIUM] | -0.2 | 0.41 | -0.16 | 0.05 | 0.51 | -0.05
C[C@]12CC[C@@H]3c4ccc(O)cc4C[C@@H](CCCCCCCCC[S+]([O-])CCCC(F)(F)C(F)(F)F)[C@H]3[C@@H]1CC[C@@H]2O (some centres undefined) [FULVESTRANT] | 0.86 | 1 | – | 0.5 | 0.53 | 0.65

SMILES | Growth Rate ([1]; replicate number 1) | Growth Rate ([2]; replicate number 1) | Growth Rate ([2]; replicate number 2) | Growth Rate ([3]; replicate number 1) | Growth Rate ([3]; replicate number 2) | Growth Rate ([1]; replicate number 2)
C=C(C)[C@@H](CC=C(C)C)C[C@@]12C[C@@H](CC=C(C)C)C(C)(C)[C@@](CC=C(C)C)(C(=O)C(C(=O)c3ccc(O)c(O)c3)=C1O)C2=O [GARCINOL] | 1 | 0.23 | 1 | 0.69 | 0.83 | 0.75
O=C(NO)c1ccc(CN(c2cnccn2)c2cnccn2)cc1 [KA-2507] | -0.27 | 1 | 0.97 | 1 | – | 0.83
C[C@]12O[C@H](C[C@]1(O)CO)n1c3ccccc3c3c4c(c5c6ccccc6n2c5c31)CNC4=O [LESTAURTINIB] | 0.59 | 1 | – | 0.16 | 0.41 | 0.46
CCNC(=O)c1noc(-c2cc(C(C)C)c(O)cc2O)c1-c1ccc(CN2CCOCC2)cc1 [LUMINESPIB] | -0.21 | -0.02 | -0.27 | -0.29 | -0.15 | 0
CNc1ncc2cc(-c3cc(NC(=O)NCCC(C)(C)C)c(F)cc3C)c(C)nc2n1 [LY-3009120] | -0.28 | -0.76 | -0.55 | 0.3 | 0.63 | 0.07
CC#C[C@]1(O)CC[C@H]2[C@@H]3CCC4=CC(=O)CCC4=C3[C@@H](c3ccc(N(C)C)cc3)C[C@@]21C [MIFEPRISTONE] | 0.84 | 1 | – | 0.49 | 1 | 0.66
Nc1ccccc1NC(=O)c1ccc(CNc2nccc(-c3cccnc3)n2)cc1 [MOCETINOSTAT] | -0.13 | 1 | -0.28 | 0.33 | 0.39 | 0.28
CCCCN(Cc1ccc(C(=O)NO)cc1)C(=O)Nc1ccccc1 [NEXTURASTAT A] | -0.18 | 1 | -0.22 | 1 | – | 0.6
CC(C)(F)C[C@H](N[C@@H](c1ccc(-c2ccc(S(C)(=O)=O)cc2)cc1)C(F)(F)F)C(=O)NC1(C#N)CC1 [ODANACATIB] | 0.65 | 0.39 | 1 | 0.9 | 0.87 | 1
CC(C)c1cc(C(=O)N2Cc3ccc(CN4CCN(C)CC4)cc3C2)c(O)cc1O [ONALESPIB] | -0.07 | 0.29 | 0.25 | -0.26 | -0.15 | 0.05
Nc1nc2cc(CC[C@H]3C[C@@H](n4ccc5c(N)ncnc54)[C@H](O)[C@@H]3O)ccc2cc1Br [ONAMETOSTAT] | 0.19 | 0.43 | 0.06 | -0.14 | -0.01 | 1
COc1ccc2c(c1)OC(C)(C)C(c1ccccc1)C2c1ccc(OCCN2CCCC2)cc1 (centres undefined) [ORMELOXIFENE] | 1 | 1 | 0.9 | 0.93 | 0.92 | 0.75
CC(=O)N1CCC(Nc2cc(C(=O)NC[C@H](O)CN3CCc4ccccc4C3)ncn2)CC1 [PEMRAMETOSTAT] | 0.26 | 1 | – | 0.9 | 1 | 1
CC(C)N(C[C@H]1O[C@@H](n2cnc3c(N)ncnc32)[C@H](O)[C@@H]1O)[C@H]1C[C@@H](CCc2nc3cc(C(C)(C)C)ccc3[nH]2)C1 [PINOMETOSTAT] | 1 | 1 | – | 0.61 | 0.77 | 0.85
COc1cc(Nc2ncc(F)c(Nc3ccc4c(n3)NC(=O)C(C)(C)O4)n2)cc(OC)c1OC [R-406] | -0.31 | -0.02 | -0.68 | 0.1 | 0.27 | -0.21
O=C(CCCCCCNC(=O)c1cnc(N(c2ccccc2)c2ccccc2)nc1)NO [RICOLINOSTAT] | 0 | 0.23 | -0.16 | 0.73 | 1 | 0.16
C/C=C1\NC(=O)[C@H]2CSSCC/C=C/[C@H](CC(=O)N[C@H](C(C)C)C(=O)N2)OC(=O)[C@H](C(C)C)NC1=O [ROMIDEPSIN] | 1 | 0.96 | -0.41 | 0.73 | – | 0.29
